Data taken from patent publication US7462634B2, “N-(pyridin-2-yl)-sulfonamide derivatives” (Agouron Pharmaceuticals, Inc., priority 2005, dated 2008).

Tests used:
human 11βHSD1 [1] = target: T1, human 11βHSD1 (Homo sapiens, UniProt P28845); experiment: 11βHSD1 enzymatic assay, percentage of inhibition; type: biochemical; conditions: inhibitor at 0.1 uM
Procedure: Percentage of inhibition was determined in a 100 mM Triethanolamine buffer, pH 8.0, 200 mM NaCl, 0.02% n-dodecyl β-D-maltoside and 5mM β-ME. A typical reaction was carried on a Corning® u-bottom 96-well plate and is described as follows: 11βHSD1 enzyme (5 nM, final concentration) was pre-incubated in the presence of the inhibitor and NADPH (500 μM, final concentration) for at least 30 minutes in the assay buffer. When pre-incubation was completed, the reaction was initiated by adding the regenerating system (2 mM Glucose-6-Phosphate, 1 U/mL Glucose-6-Phosphate dehydrogenase, and 6 mM MgCl2, all the concentration reported are final in the assay buffer), and 3H-cortisone (200 nM, final concentration). After 60 minutes, 60 μL of the assay mixture was transferred to a second 96-well plate and mixed with an equal volume of dimethylsulfoxide to stop the reaction. A 15 μL aliquot from the reaction mixture was loaded into a C-18 column (Polaris C18-A, 50×4.6 mm, 5μ, 180 Angstrom from Varian) connected to an automated High-throughput Liquid Chromatography instrument developed by Cohesive Technologies commercially available from Franklin, Mass., with a β-RAM model 3 Radio-HPLC detector from IN/US commercially available from Tampa, Fla. The substrate and product peaks were separated by using an isocratic mixture of 43:57 methanol to water (v/v) at a flow rate of 1.0 mL/min.
Percent Inhibition was calculated based on the following equation: (100−(3H-Cortisol peak area with inhibitor/3Hcortisol peak area without inhibitor)×100).
[1,2-3H]-cortisone is commercially available from American Radiolabeled Chemicals Inc. of St. Louis, Mo. USA. NADPH while Glucose-6-Phosphate and Glucose-6-Phosphate dehydrogenase was purchased from Sigma®.

human 11βHSD1 [2] = target: T1, human 11βHSD1; experiment: 11βHSD1 enzymatic assay (Kiapp determination); type: biochemical
Procedure: The 11βHSD1 assay was performed in a 100 mM Triethanolamine buffer pH 8.0, containing 200 mM NaCl, 0.02% n-dodecyl β-D-maltoside, 5% glycerol, 5 mM β-mercaptoethanol. A typical reaction for the determination of Kiapp values was carried at room temperature in a Corning® u-bottom 96-well plate and is described as follows: 11βHSD1 enzyme (5 nM, final concentration) was pre-incubated in the presence of the inhibitor and NADPH (500 μM, final concentration) for at least 30 minutes in the assay buffer. When pre-incubation was completed, the reaction was initiated by adding the regenerating system (2 mM Glucose-6-Phosphate, 1 U/mL Glucose-6-Phosphate dehydrogenase, and 6 mM MgCl2, all the concentration reported are final in the assay buffer), and 3H-cortisone (200 nM, final concentration). After 60 minutes, 60 μL of the assay mixture was transferred to a second 96-well plate and mixed with an equal volume of dimethylsulfoxide to stop the reaction. A 15 μL aliquot from the reaction mixture was loaded into a C-18 column (Polaris C18-A, 50×4.6 mm, 5μ, 180 Angstrom from Varian) connected to an automated High-throughput Liquid Chromatography instrument developed by Cohesive Technologies, commercially available from Franklin, Mass. USA, with a β-RAM model 3 Radio-HPLC detector from IN/US, commercially available from Tampa, Fla. USA. The substrate and product peaks were separated by using an isocratic mixture of 43:57 methanol to water (v/v) at a flow rate of 1.0 mL/min.
The initial reaction velocities were measured by stopping the reaction at 60 min and by measuring the area of product formation in the absence and the presence of various concentrations of inhibitors. The Kiapp values were determined using the equation for tight-binding inhibitor developed by Morrison, J F. (Morrison J F. Biochim Biophys Acta. 1969; 185: 269-86):
Where vi, and vo are the rates of cortisol formation in the presence and in the absence of inhibitor, respectively, I is the inhibitor concentration and E is the 11βHSD1 concentration in the assay buffer. All the concentrations reported are the final concentrations in the assay buffer
See also Morrison, J. F., “Kinetics of the reversible inhibition of enzyme-catalysed reactions by tight-binding inhibitors,” Biochim Biophys Acta., 1969; 185: 269-86.

human 11βHSD1 [3] = target: T1, human 11βHSD1; experiment: Human Fa2N-4 immortalized cell-based assay (cortisol accumulation); conditions: Fa2N-4 human hepatocyte-derived cells, cortisol EIA, 5 μM cortisone, overnight
Procedure: Human Fa2N-4 Immortalized Cell-Based Assay
Fa2N4 is a cell line derived from human hepatocytes, developed by MultiCell Technologies, Inc. (U.S. Pat. No. 6,107,043), and commercialized by XenoTech LLC via an exclusive license. […] Inhibition of 11βHSD1 enzyme activity was assessed in this cell model by measuring decrease in cortisol (enzyme product) accumulation in cultures co-treated with cortisone (enzyme substrate) and the potential enzyme inhibitor. Cortisol signal was quantitatively determined in the supernatant of treated cells by means of the Correlate-Enzyme Immunoassay (EIA)™Cortisol kit (Assay Designs, Inc.).
Cells were plated in 96 Well Flat Bottom Collagen-coated Microplates, 20,000 cell/well, in 200 μl/well MFE™ (Multi-functional Enhancing—XenoTech, LLC) medium, containing antibiotics (penicillin-streptomycin) and supplemented with 10% of heat inactivated fetal bovine serum. Plates were incubated at 37° C., 5% CO2 overnight. The following day, and before addition of cortisone and inhibitor compounds, medium was changed to Hepatocyte Basal Medium (HBM—Cambrex Bio ScienceWalkersVille, Inc) containing only antibiotics. Thirty-minute pre-incubation with various concentrations of inhibitor compounds (20 μL/well), was followed by addition of 5 μM Cortisone (20 μL/well), and cells were incubated at 37° C., 5% CO2 overnight. At the end of the incubation, 100 μL of each supernatant was analyzed for cortisol content using the Cortisol-EIA kit from Assay Designs, following manufacturers' instructions. Plates were read on a plate reader (Spectra MAX PLUS—Molecular Devices Corporation) at 405 nm, with correction at 580 nm. All results were compared to 100% activation control, i.e. cells treated only with cortisone (no inhibitors added).

human 11βHSD1 [4] = target: T1, human 11βHSD1; experiment: HEK293-11βHSD1/GRE-Luciferase cell-based assay; design: expressed in transfected cells; conditions: HEK293 cells over-expressing human 11βHSD1, GRE-luciferase readout, cortisone substrate, 6 h; read-out: HEK EC50
Procedure: HEK293-11 βHSD1/GRE-Luciferase Cell-Based Assay
Inhibition of 11βHSD1 enzyme activity was also measured using human kidney HEK293 stable transfected cells, over-expressing human 11βHSD1, and a reporter plasmid containing DNA sequences for specific recognition of glucocorticoid-activated glucocorticoid receptors (GRE), using a method similar to that described in Bujalska et al, Human 11β-hydroxysteroid dehydrogenase: Studies on the stably transfected isoforms and localization of the type 2 isozyme within renal tissue, Steroids, 62(1), […], 77-82 . These sequences were fused to a luciferase reporter gene (Luc) allowing for quantification of 11 βHSD1 enzyme modulation. […] Cortisol (but not cortisone) binds and activates glucocorticoid receptors (GR), which will result in activation of luciferase and production of light (assay readout). A compound with the capability of inhibiting 11βHSD1 will reduce the luciferase signal, as compared to the cortisone control (enzyme substrate).
Cells were plated in 384 Well Flat Bottom White Polystyrene TC-Treated Microplates, at 20,000 cell/well at a volume of 40 μl/well, in serum-free DME Medium. Plates were incubated at 37° C., 5% CO2 overnight before addition of inhibitor compounds. Different concentrations of inhibitor compounds were added in 10% (v/v) dimethylsulfoxide (5 μL/well), followed by addition of 3 μM Cortisone (5 μL/well), and cells were incubated at 37° C. (5% CO2) for six hours. At the end of the incubation, 25 μL/well SteadyLite HTS were added and plates were incubated 10min at room temp on shaker. Plates were then read on Top Count using 384HSD1 program. The concentration of inhibitor compound causing 50% inhibition of light signal was determined via a custom made Excel Macro. All results were compared to 100% activation control, i.e. cells treated only with cortisone (no inhibitors added).

T1 sequence (P28845 whole entry): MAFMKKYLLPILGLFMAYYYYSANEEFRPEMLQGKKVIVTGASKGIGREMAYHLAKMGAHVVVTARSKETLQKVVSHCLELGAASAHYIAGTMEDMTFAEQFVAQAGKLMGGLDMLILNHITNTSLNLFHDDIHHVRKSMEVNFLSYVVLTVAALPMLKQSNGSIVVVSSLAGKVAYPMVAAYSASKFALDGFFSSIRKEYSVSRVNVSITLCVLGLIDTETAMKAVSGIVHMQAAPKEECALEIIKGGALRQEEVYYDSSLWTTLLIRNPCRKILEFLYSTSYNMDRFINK

SMILES	inhibition at 0.1 µM (human 11βHSD1 [1])	Ki (human 11βHSD1 [2])	EC50 (human 11βHSD1 [3])	EC50 (human 11βHSD1 [4])	% inh @ 0.1 uM (human 11βHSD1 [1])
Cc1cc(S(=O)(=O)Nc2cccc(N)n2)c(F)cc1Cl [Example 5, N-(6-aminopyridin-2-yl)-4-chloro-2-fluoro-5-methylbenzenesulfonamide]	93%	9.7 nM			
N#Cc1ccc(-c2ccc(S(=O)(=O)Nc3cccc(CO)n3)cc2)cc1 [Example 9, 4′-cyano-N-[6-(hydroxymethyl)pyridin-2-yl]biphenyl-4-sulfonamide]	100%	2.8 nM	21.8 nM	59 nM	
CC(O)c1cccc(NS(=O)(=O)c2ccc(-c3ccc(C#N)cc3)cc2)n1 (single isomer, unassigned; (+)) [2(+), (+)-4′-Cyano-N-[6-(1-hydroxyethyl)pyridin-2-yl]biphenyl4-sulfonamide]		19 nM	56 nM	160 nM	85%
CCNc1cccc(NS(=O)(=O)c2ccc(-c3ccc(C#N)cc3)cc2)n1 [Example 8, 4′-cyano-N-[6-(ethylamino)pyridin-2-yl]biphenyl4-sulfonamide]	88%	4.8 nM			
CCC(O)c1cccc(NS(=O)(=O)c2ccc(-c3ccc(C#N)cc3)cc2)n1 (single isomer, unassigned; (+)) [3(+), (+)-4′-cyano-N-[6-(1-hydroxypropyl)pyridin-2-yl]biphenyl-4-sulfonamide]		5.19 nM	11.6 nM	50.7 nM	97.9%
Cc1cc(-c2ccc(C#N)cc2)ccc1S(=O)(=O)Nc1cccc(C(C)O)n1 (single isomer, unassigned; (+)) [4(+), (+)4′-Cyano-N-[6-(1-hydroxyethyl)pyridin-2-yl]-3-methylbiphenyl4-sulfonamide]	100%	2.7 nM	7.86 nM	23.1 nM	
CCCCOc1ccc(S(=O)(=O)Nc2cccc(N)n2)cc1 [Example 7, N-(6-aminopyridin-2-yl)-4-butoxybenzenesulfonamide]	100%	3.8 nM			
Cc1cc(N)nc(NS(=O)(=O)c2cc(C)c(Cl)cc2F)c1 [Example 6, N-(6-amino-4-methylpyridin-2-yl)-4-chloro-2-fluoro-5-methylbenzenesulfonamide]	98%	2.8 nM			
Cc1cc(N)nc(NS(=O)(=O)c2sc(-c3ccc(C#N)cc3)nc2C)c1 [Example 1, N-(6-amino-4-methylpyridin-2-yl)-2-(4-cyanophenyl)-4-methyl-1,3-thiazole-5-sulfonamide]	100%	1.8 nM			
Cc1cc(-c2ccc(C#N)cc2)ccc1S(=O)(=O)Nc1cccc(C(C)O)n1 (single isomer, unassigned; (-)) [4(−), (−)4′-Cyano-N-[6-(1-hydroxyethyl)pyridin-2-yl]-3-methylbiphenyl4-sulfonamide]	84%				
N#Cc1ccc(-c2ccc(S(=O)(=O)Nc3cccc(CCO)n3)cc2)cc1 [Comparative Example A, reference compound]			77.7 nM	423 nM	
CC(O)c1cccc(NS(=O)(=O)c2ccc(-c3ccc(C#N)cc3)cc2)n1 (single isomer, unassigned; (-)) [2(−), (−)4′-Cyano-N-[6-(1-hydroxyethyl)pyridin-2-yl]biphenyl4-sulfonamide]					53%
CCC(O)c1cccc(NS(=O)(=O)c2ccc(-c3ccc(C#N)cc3)cc2)n1 (single isomer, unassigned; (-)) [3(−), (−)4′-cyano-N-[6-(1-hydroxypropyl)pyridin-2-yl]biphenyl-4-sulfonamide]					59%
